Data taken from patent publication US8715751B2, “Artemisinins in the clinical and veterinary management of kinetoplastid infections” (The United States of America as Represented by the …, priority 2006, dated 2014).
Values joined by “and” are separate entries in the source; they are usually repeats but may differ in a detail not shown here. Equal values may be shown once. Read-outs that look alike come from different tables or passages of the source.

Assays:
[1] = cited from earlier work
Leishmania major lesions = assay: In vivo testing in BALB/c mice, Leishmania footpad lesion; conditions: for Lesion Size (mm) Post-Rx: daily for one week, 9 days after commencement; for Lesion Size (mm) Pre-Rx: prior to dosing
Description: One foot pad was infected with infective Leishmania promastigotes while the other foot served as control. After the infected foot pads had developed lesions, mice with similar size lesions were selected and treated daily with test article for one week. The first doses were administered on 18 May. Lesions were measured with calipers prior to dosing and 9 days after commencement of treatment (27 May) and the difference in lesion size calculated. The thickness of the uninfected footpad was also measured. […] Test articles were administered orally and intra-peritoneally (ip).

[2] = system: Leishmania major ATCC 50122 amastigotes; assay: In vitro amastigote/macrophage culture drug screening; type: cell-based; conditions: for effectiveness ranking of the compounds in the screen: 2.0 μM initial screen
Description: Preliminary drug screening (in vitro amastigote/macrophage culture) of artemisinin and artelinic acid compounds.
The four compounds were dissolved in the respective solvents as indicated in the table below (Table 1) and were tested against Leishmania major ATCC 50122 amastigotes in vitro in a mouse macrophage system. A positive (Pentostam) and negative (culture medium) controls were set for each plate. Compounds were tested at 2.0 μM in a total volume of 2-0 mls. Drug was added to well every 4 hours×1, 2 and 3, and results shown in (Table 2) below.
Because of the high potency of Artelinic acid relative to the other compounds, the experiments were repeated with different doses of Artelinic acid alone.

[3] = system: Leishmania major ATCC 50122 amastigotes; assay: as above; type: cell-based; conditions: added once
HeLa S3 cells = assay: Cytotoxicity assay in vitro (MTT); type: cell-based, human; conditions: 1 μg/mL
Description: An axenic culture of human carcinoma HeLa S3 cell line was established in Dulbecco's Modified Eagle's Medium (D-MEM, Sigma) supplemented with 4500 mg glucose/L, L-glutamine, NaHCO3, and pyridoxine HCl, to which 10% heat-inactivated (56° C., 40 min) fetal bovine serum (FBS, MultiSer) was added. Plant chromatographic fractions, which have shown potent trypanocidal activity in vitro, were selected for cytotoxicity assay. Previously dissolved in neat DMSO (Wako-for biochemical assay), an aliquot of 10 μL of each test sample was diluted in 490 μL of the cell culture medium with the intent of decreasing the DMSO concentration to 2% in the medium. HeLa S3 cells maintained in culture dish (Sumilon) were washed with Dulbecco's phosphate saline buffer (-) [DPBS (-), Nissui Pharmaceutical Co., Ltd] after syphonating the culture medium. Adherent cells were released from their dish bottom substrate by adding trypsin (Nacalai) and gently tapping with hand on the round lateral side of the dish. […] After shaking ([…]) for 3-5 min, the absorbance in each well was measured at 540 nm in a microtiter plate reader (ImmunoMini NJ-2300). The percentage of cytotoxicity (growth inhibition level) was calculated as (A-B)/A×100, where A is the mean optical density of negative control wells and B is the mean optical density of test sample wells.

[4] = system: Trypanosoma brucei brucei; assay: In vitro trypanocidal assay (microscopic viability, bloodstream forms); type: cell-based; conditions: 1 μg/mL, 24-hr incubation, read-out: growth inhibition against T. b. brucei
Description: Culture suspension of Trypanosoma brucei brucei (T. b. brucei) was obtained from Research Institute for Microbial Diseases (Osaka University, Japan). Trypanosomes were subcultured in appropriate medium (see 5.1.2) as frequently as needed to avoid overgrowth, and maintained in culture flasks at 37° C. in a humidified, 5% CO2 atmosphere incubator. In addition, parasite culture stabilates were prepared by suspending trypanosomes centrifugation (1500 rpm, room temperature, 3 min) pellet in 1 mL of a mixture of […] (v/v) trypanosome dilution buffer and 33% (v/v) glycerol. The whole volume was transferred into cryotubes and stored at −80° C. until further needed. […]
All fractions obtained stepwise in the course of the separation process of the plant crude extracts were assessed for their in vitro activity against T. b. brucei. […] Trypanosomes were harvested at late exponential growth level, counted with a hemocytometer (Erma Tokyo 7059), and resuspended by appropriate dilution in culture medium for achieving a final density of 1×10^4 cells/mL. […] After successively 24, 48, and 72 hr-incubations, parasites viability was determined by observing directly inside the wells of the microculture plate with an optical microscope (Injectoscope model IMT-YF/Olympus). […]

## Nc1nc(N)nc(Nc2ccc([As]3SCC(CO)S3)cc2)n1 (stereo not drawn) [Melarsoprol]
[1]; po
  oral bioavailability: no oral bioavailability

## C[C@H]1[C@@H](OCc2ccc(C(=O)O)cc2)O[C@@H]2O[C@@]3(C)CC[C@H]4[C@H](C)CC[C@@H]1[C@@]24OO3 [Artelinic acid, artelinic acid]
Leishmania major lesions; 4 ul/Kg, IP
  Lesion Size (mm) Post-Rx: 2.1 mm and 2.2 mm and 2.0 mm
  Lesion Size (mm) Pre-Rx: 2.6 mm and 2.5 mm
Leishmania major lesions; 4 ul/Kg, Oral
  Lesion Size (mm) Pre-Rx: 2.7 mm and 2.8 mm
Leishmania major lesions; at the doses and route of administration tested
  effectiveness compared with Pentostam, the positive control: much more effective than Pentostam
Leishmania major lesions; given orally or ip for one week
  effect on size of Leishmania major footpad lesions: decrease in the size of Leishmania major lesions
[2]
  killing of / potency against Leishmania parasites within mouse macrophages in vitro: marked potency
  effectiveness ranking of the compounds in the screen: Artelinic acid>>>Dihydroartemisinin>Beta Arteether>>Artemisinin
[2]; 2.0 μM, added once
  observation on Leishmania amastigotes: All the leishmania amastigotes were cleared
[2]; 2 uM, initial screen
  clearance of amastigotes in macrophages: cleared all of the amastigates in macrophages
[2]; dose response, added once
  lowest concentration at which killing of intracellular amastigotes was noted: 0.1 µM
  lowest dose at which clearance was complete: 0.25 µM
[3]; 0.25 μM
  observation on Leishmania amastigotes: Cleared all the Leishmania amastigotes
[3]; 0.5 μM
  observation on Leishmania amastigotes: Cleared all the parasites in the cytoplasm
[3]; 1.0 μM
  observation on Leishmania amastigotes: All the amastigotes were cleared from the macrophages

## CCO[C@H]1O[C@@H]2O[C@@]3(C)CC[C@H]4[C@H](C)CC[C@@H]([C@H]1C)[C@@]24OO3 [Beta Arteether, Beta-Arteether]
[2]
  effectiveness ranking of the compounds in the screen: Artelinic acid>>>Dihydroartemisinin>Beta Arteether>>Artemisinin

## C[C@@H]1CC[C@H]2[C@@H](C)C(=O)O[C@@H]3O[C@@]4(C)CC[C@@H]1[C@]32OO4 [Artemisinin, (+)-artemisinin]
HeLa S3 cells
  cytotoxic level in vitro: 17.3%
[2]
  killing of / potency against Leishmania parasites within mouse macrophages in vitro: results were duplicated
  effectiveness ranking of the compounds in the screen: Artelinic acid>>>Dihydroartemisinin>Beta Arteether>>Artemisinin
[2]; 2.0 μM, compound added q4 h × 1
  parasites per macrophage: between 4-7
[4]
  inhibition at 1 µg/mL: ≥ 80%

## N=C(N)c1ccc(OCCCCCOc2ccc(C(=N)N)cc2)cc1 [Pentamidine]
[1]
  oral bioavailability: no oral bioavailability

## O.O.O.O.O.O.O.O.O.O=C([O-])[C@@H]1[O][Sb](=[O])([O][Sb]2(=[O])[O][C@H]([C@H](O)CO)[C@H](O)[C@H](C(=O)[O-])[O]2)[O][C@H]([C@H](O)CO)[C@@H]1O.[Na+].[Na+].[Na+] (stereo partly drawn) [Pentostam]
Leishmania major lesions; 20 mg/Kg, IP
  Lesion Size (mm) Post-Rx: 2.3 mm and 3.0 mm and 2.7 mm
  Lesion Size (mm) Pre-Rx: 2.8 mm and 2.6 mm
Leishmania major lesions; 20 mg/Kg, Oral
  Lesion Size (mm) Post-Rx: 2.6 mm and 2.9 mm
  Lesion Size (mm) Pre-Rx: 2.8 mm and 2.7 mm

## Cc1ccc(C(=O)Nc2ccc(S(=O)(=O)O)c3cc(S(=O)(=O)O)cc(S(=O)(=O)O)c23)cc1NC(=O)c1cccc(NC(=O)Nc2cccc(C(=O)Nc3cc(C(=O)Nc4ccc(S(=O)(=O)O)c5cc(S(=O)(=O)O)cc(S(=O)(=O)O)c45)ccc3C)c2)c1 [Suramin]
[1]
  oral bioavailability: no oral bioavailability
